According to ChEMBL document CHEMBL5120971, “Network Pharmacology Research and Dual-omic Analyses Reveal the Molecular Mechanism of Natural Product Nodosin Inhibiting Muscle-Invasive Bladder Cancer in Vitro and in Vivo” (J Nat Prod, 2022):
Calls of active or inactive are those of the source. The calls are words filed in the database; no cut-off is given here.

What was measured:
T-24 [1] = assay: Cytotoxicity against human T24 cells assessed as reduction in cell growth measured after 24 hrs by live/dead staining based fluorescence assay; type: functional; settings: dose 4-10 µM, DDE = dose-dependent effect
T-24 [2] = assay: Cytotoxicity against human T24 cells assessed as reduction in cell growth by CCK8 assay; type: functional, cell-based
UMUC3 [3] = assay: Cytotoxicity against human UMUC3 cells assessed as reduction in cell growth by CCK8 assay; type: functional, cell-based
SW780 = assay: Cytotoxicity against human SW780 cells assessed as reduction in cell growth by CCK8 assay; type: functional, cell-based
UMUC3 [4] = assay: Cytotoxicity against human UMUC3 cells assessed as reduction in cell growth at 4 uM by CCK8 assay; type: functional, cell-based; settings: time 24-72 hrs, TDE = time-dependent effect
T-24 [5] = assay: Antiproliferative activity against human T24 cells assessed as reduction in Ki67 expression at 4 to 12 uM measured after 24 hrs by DAPI staining based immunofluorescence analysis; type: functional, cell-based; settings: dose 4-12 µM
T-24 [6] = assay: Cell cycle arrest in human T24 cells assessed as increase in cell accumulation at S-phase at 2 to 8 uM measured after 24 hrs by propidium iodide staining based flow cytometry; type: functional; settings: dose 2-8 µM
T-24 [7] = assay: Effect on RNF169 expression in human T24 cells at 6 uM measured after 24 to 30 hrs by proteomic analysis; type: functional, cell-based; settings: time 24-30 hrs
T-24 [8] = assay: Effect on CLSPN expression in human T24 cells at 6 uM measured after 24 to 30 hrs by proteomic analysis; type: functional, cell-based; settings: time 24-30 hrs
T-24 [9] = assay: Effect on E2F6 expression in human T24 cells at 6 uM measured after 24 to 30 hrs by proteomic analysis; type: functional, cell-based; settings: time 24-30 hrs
T-24 [10] = assay: Effect on NEK6 expression in human T24 cells at 6 uM measured after 24 to 30 hrs by proteomic analysis; type: functional, cell-based; settings: time 24-30 hrs
T-24 [11] = assay: Effect on MSH2 expression in human T24 cells at 6 uM measured after 24 to 30 hrs by proteomic analysis; type: functional, cell-based; settings: time 24-30 hrs
T-24 [12] = assay: Effect on POLD3 expression in human T24 cells at 6 uM measured after 24 to 30 hrs by proteomic analysis; type: functional, cell-based; settings: time 24-30 hrs
T-24 [13] = assay: Effect on RHOB expression in human T24 cells at 6 uM measured after 24 to 30 hrs by proteomic analysis; type: functional, cell-based; settings: time 24-30 hrs
T-24 [14] = assay: Effect on SUMO3 expression in human T24 cells at 6 uM measured after 24 to 30 hrs by proteomic analysis; type: functional, cell-based; settings: time 24-30 hrs
T-24 [15] = assay: Induction of apoptosis in human T24 cells assessed as viable cells at 4 uM measured after 48 hrs by Annexin V-FITC/propidium iodide staining based flow cytometry (reference value: 97.49%); type: functional; settings: read-out: Activity
T-24 [16] = assay: Induction of apoptosis in human T24 cells assessed as late apoptotic cells at 4 uM measured after 48 hrs by Annexin V-FITC/propidium iodide staining based flow cytometry (reference value: 0.74%); type: functional
T-24 [17] = assay: Induction of apoptosis in human T24 cells assessed as necrotic cells at 4 uM measured after 48 hrs by Annexin V-FITC/propidium iodide staining based flow cytometry (reference value: 0.57%); type: functional
T-24 [18] = assay: Induction of apoptosis in human T24 cells assessed as late apoptotic cells at 6 uM measured after 48 hrs by Annexin V-FITC/propidium iodide staining based flow cytometry (reference value: 0.74%); type: functional
T-24 [19] = assay: Induction of apoptosis in human T24 cells assessed as early apoptotic cells at 8 uM measured after 48 hrs by Annexin V-FITC/propidium iodide staining based flow cytometry (reference value: 1.2%); type: functional
T-24 [20] = assay: Induction of apoptosis in human T24 cells assessed as late apoptotic cells at 8 uM measured after 48 hrs by Annexin V-FITC/propidium iodide staining based flow cytometry (reference value: 0.74%); type: functional
T-24 [21] = assay: Induction of apoptosis in human T24 cells assessed as necrotic cells at 8 uM measured after 48 hrs by Annexin V-FITC/propidium iodide staining based flow cytometry (reference value: 0.57%); type: functional
T-24 [22] = assay: Induction of apoptosis in human T24 cells assessed as effect on DHCR24 expression at 6 uM measured after 24 to 30 hrs by proteomic analysis; type: functional, cell-based; settings: time 24-30 hrs
T-24 [23] = assay: Induction of apoptosis in human T24 cells assessed as effect on TRIAP1 expression at 6 uM measured after 24 to 30 hrs by proteomic analysis; type: functional, cell-based; settings: time 24-30 hrs
T-24 [24] = assay: Induction of apoptosis in human T24 cells assessed as effect on ARL6IP1 expression at 6 uM measured after 24 to 30 hrs by proteomic analysis; type: functional, cell-based; settings: time 24-30 hrs
T-24 [25] = assay: Induction of apoptosis in human T24 cells assessed as effect on FAM168A expression at 6 uM measured after 24 to 30 hrs by proteomic analysis; type: functional, cell-based; settings: time 24-30 hrs
T-24 [26] = assay: Induction of autophagy in human T24 cells assessed as effect on OPTN gene expression at 12 to 18 uM measured after 24 to 30 hrs by analysis; type: functional, cell-based; settings: dose 12-18 µM, time 24-30 hrs
T-24 [27] = assay: Induction of autophagy in human T24 cells assessed as up regulation of MAP1LC3B gene expression at 6 uM measured after 12 to 18 hrs by transcriptome analysis; type: functional, cell-based; settings: time 12-18 hrs
T-24 [28] = assay: Induction of apoptosis in human T24 cells assessed as up regulation of SQSTM1 expression at 6 to 12 uM measured after 24 to 30 hrs by Western blot analysis; type: functional, cell-based; settings: dose 6-12 µM, time 24-30 hrs
T-24 [29] = assay: Induction of apoptosis in human T24 cells assessed as up regulation of MAP1LC3B expression at 6 to 12 uM measured after 24 to 30 hrs by Western blot analysis; type: functional, cell-based; settings: dose 6-12 µM, time 24-30 hrs
T-24 [30] = assay: Induction of apoptosis in human T24 cells assessed as up regulation of SQSTM1 expression at 6 to 12 uM measured after 24 hrs by immunofluorescence analysis; type: functional, cell-based; settings: dose 6-12 µM
T-24 [31] = assay: Up regulation of AIFM2 gene expression in human T24 cells at 6 uM measured after 12 to 18 hrs by transcriptome analysis; type: functional, cell-based; settings: time 12-18 hrs
T-24 [32] = assay: Up regulation of FTL expression in human T24 cells at 6 uM measured after 24 to 30 hrs by proteomic analysis; type: functional, cell-based; settings: time 24-30 hrs
T-24 [33] = assay: Up regulation of SLC7A11 expression in human T24 cells at 6 uM measured after 24 to 30 hrs by proteomic analysis; type: functional, cell-based; settings: time 24-30 hrs
T-24 [34] = assay: Antimigratory activity against human T24 cells assessed as down regulation of NEXN expression at 6 uM measured after 24 to 30 hrs by proteomic analysis; type: functional, cell-based; settings: time 24-30 hrs
T-24 [35] = assay: Antimigratory activity against human T24 cells assessed as reduction in F-actin expression at 8 to 20 uM measured after 24 hrs by actin-tracker red-594/DAPI staining based fluorescence assay; type: functional, cell-based; settings: dose 8-20 µM
T-24 [36] = assay: Antitumor activity against human T24 cells xenografted in BALB/c mouse assessed as reduction in mitotic count at 2 mg/kg, ip administered at 2 days interval by H and E staining based assay; type: functional, organism-based
T-24 [37] = assay: Antitumor activity against human T24 cells xenografted in BALB/c mouse assessed as increase in HMOX1expression at 2 mg/kg, ip administered at 2 days interval by immunohistochemical analysis; type: functional, organism-based

With C=C1C(=O)[C@]23C[C@H]1C[C@@H](O)[C@H]2[C@@]12CO[C@@H](O)[C@@H]1C(C)(C)CC[C@@H]2OC3=O [NODOSIN] the Activity (T-24 [1]) was “Dde”, the IC50 (T-24 [2]) was 4.91 µM and the Activity (T-24 [2]; DDE = dose-dependent effect) was “Dde”. The IC50 (UMUC3 [3]) was 3.45 µM, the Activity (UMUC3 [3]; DDE = dose-dependent effect) was “Dde” and the IC50 (SW780) was 9.99 µM. For the same compound, the Activity (SW780; DDE = dose-dependent effect) was “Dde”, the Activity (UMUC3 [4]) was “Tde” and the Activity (T-24 [5]) was “Active”. For the same compound, the Activity (T-24 [6]) was “Active”, the Activity (T-24 [7]) was “Active” and the Activity (T-24 [8]) was “Active”. The Activity (T-24 [9]) was “Active”, the Activity (T-24 [10]) was “Active” and the Activity (T-24 [11]) was “Active”. For the same compound, the Activity (T-24 [12]) was “Active”, the Activity (T-24 [13]) was “Active” and the Activity (T-24 [14]) was “Active”. The viability at 4 µM (T-24 [15]) was 96.1%, the Activity (T-24 [16]) was 1.34% and the Activity (T-24 [17]) was 0.2%. The Activity (T-24 [18]) was 10.04%, the Activity (T-24 [19]) was 10.54% and the Activity (T-24 [20]) was 13.17%. For the same compound, the Activity (T-24 [21]) was 0.35%, the Activity (T-24 [22]) was “Active” and the Activity (T-24 [23]) was “Active”. For the same compound, the Activity (T-24 [24]) was “Active”, the Activity (T-24 [25]) was “Active” and the Activity (T-24 [26]) was “Active”. The Activity (T-24 [27]) was “Active”, the Activity (T-24 [28]) was “Active” and the Activity (T-24 [29]) was “Active”. The Activity (T-24 [30]) was “Active”, the Activity (T-24 [31]) was “Active” and the Activity (T-24 [32]) was “Active”. The Activity (T-24 [33]) was “Active”, the Activity (T-24 [34]) was “Active” and the Activity (T-24 [35]) was “Active”. For the same compound, the Activity (T-24 [36]) was “Active” and the Activity (T-24 [37]) was “Active”.
